# Results from ChEMBL document CHEMBL1275550, “In vitro activity of doripenem, a carbapenem for the treatment of challenging infections caused by gram-negative bacteria, against recent clinical isolates from the United States” (2008).
# Assays:
# Enterobacteriaceae [1] = assay: Antimicrobial activity against Ceftazidime non-susceptible Enterobacteriaceae by broth microdilution method; format: functional
# Enterobacteriaceae [2] = assay: Antimicrobial activity against Ceftazidime non-susceptible Enterobacteriaceae assessed as susceptible isolate by broth microdilution method; format: functional
# Enterobacteriaceae [3] = assay: Antimicrobial activity against Ceftazidime non-susceptible Enterobacteriaceae assessed as resistant isolate by broth microdilution method; format: functional
# Escherichia coli [4] = assay: Antimicrobial activity against Non-ESBL Escherichia coli by broth microdilution method; format: functional
# Escherichia coli [5] = assay: Antimicrobial activity against ESBL producing Escherichia coli by broth microdilution method; format: functional
# Escherichia coli [6] = assay: Antimicrobial activity against Non-ESBL Escherichia coli assessed as intermediate isolate by broth microdilution method; format: functional
# Escherichia coli [7] = assay: Antimicrobial activity against ESBL producing Escherichia coli assessed as intermediate isolate by broth microdilution method; format: functional
# Klebsiella pneumoniae [8] = assay: Antimicrobial activity against Non-ESBL Klebsiella pneumoniae by broth microdilution method; format: functional
# Klebsiella pneumoniae [9] = assay: Antimicrobial activity against Non-ESBL Klebsiella pneumoniae assessed as susceptible isolate by broth microdilution method; format: functional
# Klebsiella pneumoniae [10] = assay: Antimicrobial activity against Non-ESBL Klebsiella pneumoniae assessed as intermediate isolate by broth microdilution method; format: functional
# Klebsiella pneumoniae [11] = assay: Antimicrobial activity against ESBL producing Klebsiella pneumoniae assessed as susceptible isolate by broth microdilution method; format: functional
# Proteus mirabilis [12] = assay: Antimicrobial activity against Non-ESBL Proteus mirabilis assessed as intermediate isolate by broth microdilution method; format: functional
# Proteus mirabilis [13] = assay: Antimicrobial activity against ESBL producing Proteus mirabilis assessed as intermediate isolate by broth microdilution method; format: functional
# Enterobacter cloacae [14] = assay: Antimicrobial activity against Enterobacter cloacae with nonderepressed AmpC beta-lactamsae assessed as susceptible isolate by broth microdilution method; format: functional
# Enterobacter cloacae [15] = assay: Antimicrobial activity against Enterobacter cloacae with derepressed AmpC beta-lactamsae assessed as intermediate isolate by broth microdilution method; format: functional
# Citrobacter [16] = assay: Antimicrobial activity against Citrobacter with nonderepressed AmpC beta-lactamsae by broth microdilution method; format: functional
# Citrobacter [17] = assay: Antimicrobial activity against Citrobacter with nonderepressed AmpC beta-lactamsae assessed as susceptible isolate by broth microdilution method; format: functional
# Citrobacter [18] = assay: Antimicrobial activity against Citrobacter with nonderepressed AmpC beta-lactamsae assessed as intermediate isolate by broth microdilution method; format: functional
# Serratia marcescens [19] = assay: Antimicrobial activity against Ceftazidime non-susceptible Serratia marcescens by broth microdilution method; format: functional
# Serratia marcescens [20] = assay: Antimicrobial activity against Ceftazidime susceptible Serratia marcescens assessed as intermediate isolate by broth microdilution method; format: functional
# Serratia marcescens [21] = assay: Antimicrobial activity against Ceftazidime susceptible Serratia marcescens assessed as resistant isolate by broth microdilution method; format: functional
# Serratia marcescens [22] = assay: Antimicrobial activity against Ceftazidime non-susceptible Serratia marcescens assessed as intermediate isolate by broth microdilution method; format: functional
# Pseudomonas aeruginosa [23] = assay: Antimicrobial activity against Ceftazidime non-susceptible Pseudomonas aeruginosa by broth microdilution method; format: functional
# Pseudomonas aeruginosa [24] = assay: Antimicrobial activity against Ceftazidime susceptible Pseudomonas aeruginosa assessed as susceptible isolate by broth microdilution method; format: functional
# Pseudomonas aeruginosa [25] = assay: Antimicrobial activity against imipenem non-susceptible Pseudomonas aeruginosa assessed as resistant isolate by broth microdilution method; format: functional
# Acinetobacter [26] = assay: Antimicrobial activity against imipenem susceptible Acinetobacter by broth microdilution method; format: functional
# Acinetobacter [27] = assay: Antimicrobial activity against imipenem non-susceptible Acinetobacter by broth microdilution method; format: functional
# Acinetobacter [28] = assay: Antimicrobial activity against imipenem susceptible Acinetobacter assessed as susceptible isolate by broth microdilution method; format: functional
# Acinetobacter [29] = assay: Antimicrobial activity against imipenem susceptible Acinetobacter assessed as intermediate isolate by broth microdilution method; format: functional
# Acinetobacter [30] = assay: Antimicrobial activity against imipenem susceptible Acinetobacter assessed as resistant isolate by broth microdilution method; format: functional
# Acinetobacter [31] = assay: Antimicrobial activity against imipenem non-susceptible Acinetobacter assessed as susceptible isolate by broth microdilution method; format: functional
# Acinetobacter [32] = assay: Antimicrobial activity against imipenem non-susceptible Acinetobacter assessed as intermediate isolate by broth microdilution method; format: functional
# Pseudomonas aeruginosa [33] = assay: Antimicrobial activity against Pseudomonas aeruginosa isolated from ICU patient assessed as susceptible isolate by broth microdilution method
# Pseudomonas aeruginosa [34] = assay: Antimicrobial activity against Pseudomonas aeruginosa isolated from ICU patient assessed as intermediate isolate by broth microdilution method
# Pseudomonas aeruginosa [35] = assay: Antimicrobial activity against Pseudomonas aeruginosa isolated from non-ICU patient assessed as resistant isolate by broth microdilution method
# Escherichia coli [36] = assay: Antimicrobial activity against Escherichia coli by broth microdilution method; format: functional
# Escherichia coli [37] = assay: Antimicrobial activity against Escherichia coli assessed as susceptible isolate by broth microdilution method; format: functional
# Klebsiella pneumoniae [38] = assay: Antimicrobial activity against Klebsiella pneumoniae assessed as susceptible isolate by broth microdilution method; format: functional
# Proteus mirabilis [39] = assay: Antimicrobial activity against Proteus mirabilis by broth microdilution method; format: functional
# Enterobacter cloacae [40] = assay: Antimicrobial activity against Enterobacter cloacae by broth microdilution method; format: functional
# Serratia marcescens [41] = assay: Antimicrobial activity against Serratia marcescens by broth microdilution method; format: functional
# Acinetobacter [42] = assay: Antimicrobial activity against Acinetobacter assessed as susceptible isolate by broth microdilution method; format: functional
# Staphylococcus aureus = assay: Antimicrobial activity against methicillin-resistant Staphylococcus aureus by broth microdilution method; format: functional
# Staphylococcus = assay: Antimicrobial activity against methicillin-susceptible coagulase-negative Staphylococcus by broth microdilution method; format: functional; conditions: Staphylococcus
# Streptococcus pneumoniae = assay: Antimicrobial activity against penicillin-susceptible Streptococcus pneumoniae by broth microdilution method; format: functional; conditions: Streptococcus pneumoniae
structure (smiles),measurement,setting,value
CC(C)(O/N=C(\C(=O)N[C@@H]1C(=O)N2C(C(=O)[O-])=C(C[n+]3ccccc3)CS[C@H]12)c1csc(N)n1)C(=O)O [CEFTAZIDIME],MIC50,Enterobacteriaceae [1],> 32 µg/mL
same,MIC90,Enterobacteriaceae [1],> 32 µg/mL
same,Activity,Enterobacteriaceae [2],0%
same,Activity,Enterobacteriaceae [3],92.4%
same,MIC50,Escherichia coli [4],0.12 µg/mL
same,MIC90,Escherichia coli [4],0.25 µg/mL
same,MIC50,Escherichia coli [5],32 µg/mL
same,MIC90,Escherichia coli [5],> 32 µg/mL
same,Activity,Escherichia coli [6],0.5%
same,Activity,Escherichia coli [7],10%
same,MIC50,Klebsiella pneumoniae [8],0.12 µg/mL
same,MIC90,Klebsiella pneumoniae [8],0.5 µg/mL
same,Activity,Klebsiella pneumoniae [9],99.2%
same,Activity,Klebsiella pneumoniae [10],0.3%
same,Activity,Klebsiella pneumoniae [11],4.5%
same,Activity,Proteus mirabilis [12],0.2%
same,Activity,Proteus mirabilis [13],50%
same,Activity,Enterobacter cloacae [14],93.6%
same,Activity,Enterobacter cloacae [15],1.9%
same,MIC50,Citrobacter [16],0.25 µg/mL
same,MIC90,Citrobacter [16],1 µg/mL
same,Activity,Citrobacter [17],98.3%
same,Activity,Citrobacter [18],0.4%
same,MIC,Serratia marcescens [19],> 32 µg/mL
same,MIC50,Serratia marcescens [19],> 32 µg/mL
same,MIC90,Serratia marcescens [19],> 32 µg/mL
same,Activity,Serratia marcescens [20],0%
same,Activity,Serratia marcescens [21],0%
same,Activity,Serratia marcescens [22],0%
same,MIC50,Pseudomonas aeruginosa [23],32 µg/mL
same,MIC90,Pseudomonas aeruginosa [23],> 32 µg/mL
same,Activity,Pseudomonas aeruginosa [24],100%
same,Activity,Pseudomonas aeruginosa [25],18.4%
same,MIC50,Acinetobacter [26],4 µg/mL
same,MIC90,Acinetobacter [26],> 32 µg/mL
same,MIC50,Acinetobacter [27],> 32 µg/mL
same,MIC90,Acinetobacter [27],> 32 µg/mL
same,Activity,Acinetobacter [28],66.8%
same,Activity,Acinetobacter [29],5.5%
same,Activity,Acinetobacter [30],27.7%
same,Activity,Acinetobacter [31],15.7%
same,Activity,Acinetobacter [32],0%
same,Activity,Pseudomonas aeruginosa [33],79.9%
same,Activity,Pseudomonas aeruginosa [34],5.8%
same,Activity,Pseudomonas aeruginosa [35],10.4%
C[C@@H](O)[C@H]1C(=O)N2C(C(=O)O)=C(S[C@@H]3CN[C@H](CNS(N)(=O)=O)C3)[C@H](C)[C@H]12 [DORIPENEM],MIC50,Enterobacteriaceae [1],0.06 µg/mL
same,MIC90,Enterobacteriaceae [1],0.25 µg/mL
same,Activity,Enterobacteriaceae [2],96.7%
same,MIC,Escherichia coli [36],≤ 0.015 µg/mL
same,MIC50,Escherichia coli [36],≤ 0.015 µg/mL
same,MIC90,Escherichia coli [36],0.03 µg/mL
same,MIC,Escherichia coli [4],≤ 0.015 µg/mL
same,MIC50,Escherichia coli [4],≤ 0.015 µg/mL
same,MIC90,Escherichia coli [4],0.03 µg/mL
same,MIC50,Escherichia coli [5],0.03 µg/mL
same,MIC90,Escherichia coli [5],0.06 µg/mL
same,Activity,Escherichia coli [37],99.8%
same,MIC50,Klebsiella pneumoniae [8],0.03 µg/mL
same,MIC90,Klebsiella pneumoniae [8],0.06 µg/mL
same,Activity,Klebsiella pneumoniae [38],99.6%
same,Activity,Klebsiella pneumoniae [9],99.7%
same,Activity,Klebsiella pneumoniae [11],95.5%
same,MIC50,Proteus mirabilis [39],0.12 µg/mL
same,MIC90,Proteus mirabilis [39],0.5 µg/mL
same,MIC50,Enterobacter cloacae [40],0.03 µg/mL
same,MIC90,Enterobacter cloacae [40],0.12 µg/mL
same,Activity,Enterobacter cloacae [14],99.3%
same,MIC50,Citrobacter [16],0.03 µg/mL
same,MIC90,Citrobacter [16],0.06 µg/mL
same,Activity,Citrobacter [17],99.8%
same,MIC50,Serratia marcescens [41],0.12 µg/mL
same,MIC90,Serratia marcescens [41],0.25 µg/mL
same,MIC50,Serratia marcescens [19],0.12 µg/mL
same,MIC90,Serratia marcescens [19],0.25 µg/mL
same,MIC50,Pseudomonas aeruginosa [23],1 µg/mL
same,MIC90,Pseudomonas aeruginosa [23],16 µg/mL
same,Activity,Pseudomonas aeruginosa [24],92.3%
same,MIC50,Acinetobacter [26],0.25 µg/mL
same,MIC90,Acinetobacter [26],2 µg/mL
same,MIC50,Acinetobacter [27],32 µg/mL
same,MIC90,Acinetobacter [27],> 32 µg/mL
same,Activity,Acinetobacter [42],73.4%
same,Activity,Acinetobacter [28],89.1%
same,Activity,Acinetobacter [31],0%
same,MIC50,Staphylococcus aureus,0.5 µg/mL
same,MIC90,Staphylococcus aureus,8 µg/mL
same,MIC50,Staphylococcus; read-out: MIC50,0.03 µg/mL
same,MIC90,Staphylococcus; read-out: MIC90,0.06 µg/mL
same,MIC50,Streptococcus pneumoniae,≤ 0.015 µg/mL
same,MIC90,Streptococcus pneumoniae; read-out: MIC90,≤ 0.015 µg/mL
same,Activity,Pseudomonas aeruginosa [33],78.4%
